Assays:
Type in all cases: cell-based
SF126 = experiment: Matrigel outgrowth assay/branching assay; details: Homo sapiens, SF-126, Table Vb, read-out: Total branching inhibition in Matrigel SF126
Method in brief: (§1)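 Cells (5000/well) were seeded onto polymerized 3 mg/ml Matrigel with compound at 3.125, 1.56 or 0.78 μM versus DMSO. Branching was imaged by inverted microscopy (5× objective) at 48, 72 and 96 h. Only concentrations giving total branching inhibition scored positive.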

SK-MEL28 = experiment: Matrigel outgrowth assay/branching assay; details: IC100, SK-MEL28; Table Vb
Method in brief: as §1

A172 = experiment: Matrigel outgrowth assay/branching assay; details: Homo sapiens, A 172, Table Vb, read-out: Total branching inhibition in Matrigel A172
Method in brief: as §1

U118 = experiment: Matrigel outgrowth assay/branching assay; details: Table Vb, read-out: Total branching inhibition in Matrigel U118
Method in brief: as §1

NCI-H1299 = experiment: Matrigel outgrowth assay/branching assay; details: IC100, NCI-H1299; Table Vb
Method in brief: as §1

U138 = experiment: Matrigel outgrowth assay/branching assay; details: IC100, U138; Table Vb
Method in brief: as §1

PC3 [1] = experiment: Matrigel outgrowth assay/branching assay; details: IC100, PC3; Table Vb
Method in brief: as §1

U373 [2] = experiment: Matrigel outgrowth assay/branching assay; details: IC100, U373; Table Vb
Method in brief: as §1

U87MG = experiment: Matrigel outgrowth assay/branching assay; details: IC100, U87MG; Table Vb
Method in brief: as §1

cells = experiment: Boyden chamber migration assay (Table VI); details: Homo sapiens, Hs-578T, 16 h, Hs578T cells; 16 h migration
Method in brief: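 Migration read-out is a count of fixed cells on the underside of an […] insert membrane after 16 h. Chemoattractant was medium with 10% FCS in the lower chamber; 20000 cells started in serum-free medium with 0.1% BSA above, and those left on top were removed by swab.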

MDA-MB435s = experiment: Cell vitality assay (ATP assay, CellTiter-Glo); details: Homo sapiens, MDA-MB-435S, Table IIc
Method in brief: (§2)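 Viability is estimated from cellular ATP after 72 h of compound treatment at 1000 cells per well. The dilution series runs 12.5, 6.25, 3.125, 1.56, 0.78, 0.39 and 0.195 μM. Half-maximal values are expressed against DMSO-treated wells.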

786-0 = experiment: Cell vitality assay (ATP assay, CellTiter-Glo); details: Homo sapiens, Table IIb
Method in brief: as §2

Aspc-1 = experiment: Cell vitality assay (ATP assay, CellTiter-Glo); details: Homo sapiens, ASPC1, Table IIb
Method in brief: as §2

DU145 = experiment: Cell vitality assay (ATP assay, CellTiter-Glo); details: Homo sapiens, DU-145, Table IIb
Method in brief: as §2

H460 = experiment: Cell vitality assay (ATP assay, CellTiter-Glo); details: Homo sapiens, NCI-H460, Table IIc
Method in brief: as §2

PC3 [3] = experiment: Cell vitality assay (ATP assay, CellTiter-Glo); details: Homo sapiens, PC-3, Table IIb
Method in brief: as §2

MiaPaca-2 = experiment: Cell vitality assay (ATP assay, CellTiter-Glo); details: Homo sapiens, MIA PaCa-2, Table IIb
Method in brief: as §2

U373 [4] = experiment: Cell vitality assay (ATP assay, CellTiter-Glo); details: Homo sapiens, U373 MG, Table IIc
Method in brief: as §2

Panc-1 = experiment: Cell vitality assay (ATP assay, CellTiter-Glo); details: Homo sapiens, Table IIb
Method in brief: as §2

HT29 = experiment: Cell vitality assay (ATP assay, CellTiter-Glo); details: Homo sapiens, HT-29, Table IIc
Method in brief: as §2

A549 = experiment: Cell vitality assay (ATP assay, CellTiter-Glo); details: Homo sapiens, Table IIc
Method in brief: as §2

MCF10A = experiment: Cell vitality assay (ATP assay, CellTiter-Glo); details: Homo sapiens, MCF-10A, Table IIb
Method in brief: as §2

SMILES	IC100 (SF126)	Total branching inhibition in Matrigel SK-MEL28 (SK-MEL28)	IC100 (A172)	IC100 (U118)	Total branching inhibition in Matrigel NCI-H1299 (NCI-H1299)	Total branching inhibition in Matrigel U138 (U138)	Total branching inhibition in Matrigel PC3 (PC3 [1])	Total branching inhibition in Matrigel U373 (U373 [2])	Total branching inhibition in Matrigel U87MG (U87MG)	IC50 (cells)	IC50 (MDA-MB435s)	IC50 (786-0)	IC50 (Aspc-1)	IC50 (DU145)	IC50 (H460)	IC50 (PC3 [3])	IC50 (MiaPaca-2)	IC50 (U373 [4])	IC50 (Panc-1)	IC50 (HT29)	further results
COc1cc2c(Oc3ccc(NS(=O)(=O)c4cc(F)ccc4F)cc3F)ccnc2cc1OCCCN1CCN(C)CC1 [Example 12, 2,5-Difluoro-N-(3-fluoro-4-{6-methoxy-7-[3-(4-methyl-piperazin-1-yl)-propoxy]-quinolin-4-yloxy}-phenyl)-benzenesulfonamide]	≤ 12.5 µM	++ (IC100≦12.5 μM)	≤ 12.5 µM	≤ 12.5 µM	++ (IC100≦12.5 μM)	++ (IC100≦12.5 μM)	++ (IC100≦12.5 μM)	++ (IC100≦12.5 μM)	+ (IC100>12.5 μM)	≤ 5 µM	≤ 12.5 µM	≤ 12.5 µM	≤ 12.5 µM	≤ 12.5 µM	≤ 12.5 µM	≤ 12.5 µM	≤ 12.5 µM	≤ 12.5 µM	12.5 to 50 µM	≤ 12.5 µM	IC50 (A549): ≤ 12.5 µM
COc1cc2c(Oc3ccc(NS(=O)(=O)c4ccccc4C(F)(F)F)cc3F)ccnc2cc1OCCCN1CCN(C)CC1 [Example 24, N-(3-Fluoro-4-{6-methoxy-7-[3-(4-methyl-piperazin-1-yl)-propoxy]-quinolin-4-yloxy}-phenyl)-2-trifluoromethyl-benzenesulfonamide]	≤ 12.5 µM	++ (IC100≦12.5 μM)	≤ 12.5 µM	≤ 12.5 µM	++ (IC100≦12.5 μM)	++ (IC100≦12.5 μM)	++ (IC100≦12.5 μM)	++ (IC100≦12.5 μM)	+ (IC100>12.5 μM)	≤ 5 µM	≤ 12.5 µM	≤ 12.5 µM	≤ 12.5 µM	≤ 12.5 µM	≤ 12.5 µM	12.5 to 50 µM	≤ 12.5 µM	≤ 12.5 µM	12.5 to 50 µM	≤ 12.5 µM	IC50 (MCF10A): ≤ 12.5 µM; IC50 (A549): ≤ 12.5 µM
